Publication PMC7933434, “Entropy-driven binding of gut bacterial β-glucuronidase inhibitors ameliorates irinotecan-induced toxicity” (Communications Biology, 2021)
Values joined by “and” are separate entries in the source; they are usually repeats but may differ in a detail not shown here. Equal values may be shown once. “Also recorded” adds a separate entry of the source.

Tests used:
[1] = molecular target: BdGUS (Bifidobacterium dentium GUS) (Bifidobacterium dentium, UniProt D2Q7B1); test: biochemical; parameters: GUS activity (hydrolysis rate of MUG) / 1/v: unit not given here
Chain of BdGUS (Bifidobacterium dentium GUS) (D2Q7B1 1-668): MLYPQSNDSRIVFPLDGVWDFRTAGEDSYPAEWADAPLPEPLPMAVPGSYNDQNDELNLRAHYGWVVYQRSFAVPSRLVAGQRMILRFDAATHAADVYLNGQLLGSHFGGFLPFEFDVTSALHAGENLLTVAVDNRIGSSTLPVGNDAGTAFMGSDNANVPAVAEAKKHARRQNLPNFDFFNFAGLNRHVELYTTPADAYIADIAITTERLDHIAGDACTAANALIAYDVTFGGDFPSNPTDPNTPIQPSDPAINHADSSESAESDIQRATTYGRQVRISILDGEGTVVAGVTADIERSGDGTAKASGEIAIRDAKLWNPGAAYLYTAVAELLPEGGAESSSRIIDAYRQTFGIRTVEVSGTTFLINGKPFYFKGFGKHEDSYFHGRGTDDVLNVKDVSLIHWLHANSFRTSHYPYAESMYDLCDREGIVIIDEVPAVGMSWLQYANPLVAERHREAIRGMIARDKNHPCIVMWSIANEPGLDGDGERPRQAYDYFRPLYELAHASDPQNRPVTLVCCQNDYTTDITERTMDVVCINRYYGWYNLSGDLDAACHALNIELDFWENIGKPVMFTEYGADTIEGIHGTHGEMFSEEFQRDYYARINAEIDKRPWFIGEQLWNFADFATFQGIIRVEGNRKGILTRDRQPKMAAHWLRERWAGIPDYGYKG

[2] = molecular target: EcGUS (Escherichia coli, UniProt P05804); test: Isothermal titration calorimetry, EcGUS; assay type: binding; conditions: EcGUS
Chain of EcGUS (P05804 whole entry): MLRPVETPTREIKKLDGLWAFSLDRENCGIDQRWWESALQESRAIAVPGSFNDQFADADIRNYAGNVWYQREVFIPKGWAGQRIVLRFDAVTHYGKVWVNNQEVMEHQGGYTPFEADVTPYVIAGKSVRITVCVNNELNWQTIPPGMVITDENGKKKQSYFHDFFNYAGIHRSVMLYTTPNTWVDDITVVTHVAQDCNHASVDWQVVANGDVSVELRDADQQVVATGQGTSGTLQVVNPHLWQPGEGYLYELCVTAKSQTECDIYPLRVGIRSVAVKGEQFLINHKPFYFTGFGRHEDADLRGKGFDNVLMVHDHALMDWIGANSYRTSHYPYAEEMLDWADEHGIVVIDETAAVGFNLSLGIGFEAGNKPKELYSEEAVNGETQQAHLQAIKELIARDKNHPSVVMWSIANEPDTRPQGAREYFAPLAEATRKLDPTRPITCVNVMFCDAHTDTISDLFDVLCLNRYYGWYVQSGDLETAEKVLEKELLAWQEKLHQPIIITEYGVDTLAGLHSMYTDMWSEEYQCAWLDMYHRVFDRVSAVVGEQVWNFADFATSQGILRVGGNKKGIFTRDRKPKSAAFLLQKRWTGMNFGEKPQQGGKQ

[3] = molecular target: EcGUS (Escherichia coli GUS) (Escherichia coli, UniProt P05804); test: biochemical
Chain of EcGUS (Escherichia coli GUS) (P05804 whole entry): as above

[4] = molecular target: LgGUS (Lactobacillus gasseri GUS) (Lactobacillus gasseri, UniProt Q9AHJ8); test: GUS inhibition assay, hydrolysis of 4-methylumbelliferyl-β-glucuronide, LgGUS; assay type: biochemical; parameters: GUS activity (hydrolysis rate of MUG) / 1/v: unit not given here
Chain of LgGUS (Lactobacillus gasseri GUS) (Q9AHJ8 1-598): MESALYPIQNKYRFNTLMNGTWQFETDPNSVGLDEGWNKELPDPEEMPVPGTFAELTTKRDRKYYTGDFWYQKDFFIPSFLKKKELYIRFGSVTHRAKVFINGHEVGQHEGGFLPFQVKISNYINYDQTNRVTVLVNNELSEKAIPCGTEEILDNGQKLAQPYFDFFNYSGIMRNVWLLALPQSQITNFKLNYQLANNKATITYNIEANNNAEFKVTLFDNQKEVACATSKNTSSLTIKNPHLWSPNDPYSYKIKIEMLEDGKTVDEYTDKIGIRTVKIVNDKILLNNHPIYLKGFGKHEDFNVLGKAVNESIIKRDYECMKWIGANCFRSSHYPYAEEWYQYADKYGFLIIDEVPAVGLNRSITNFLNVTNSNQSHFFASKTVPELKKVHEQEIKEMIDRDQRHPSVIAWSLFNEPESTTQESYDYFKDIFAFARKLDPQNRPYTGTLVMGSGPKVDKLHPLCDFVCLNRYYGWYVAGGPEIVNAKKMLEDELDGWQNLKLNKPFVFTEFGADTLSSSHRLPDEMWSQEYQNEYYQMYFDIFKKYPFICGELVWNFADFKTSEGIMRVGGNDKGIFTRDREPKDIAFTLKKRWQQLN

[5] = molecular target: BdGUS (Bifidobacterium dentium, UniProt D2Q7B1); test: biochemical; assay type: binding; conditions: BdGUS; Tris buffer (250 mM NaCl, 20 mM Tris, pH 8.0); 298 K
Chain of BdGUS (D2Q7B1 entry or part of it): as the sequence (D2Q7B1 1-668) above

[6] = [Inhibitor 3] = 0.5 μM, [MUG] 1.5 mM
[7] = [Inhibitor 3] = 0.5 μM, [MUG] 3 mM
[8] = [Inhibitor 3] = 1 μM, [MUG] 0.375 mM
[9] = [Inhibitor 3] = 1 μM, [MUG] 0.75 mM
[10] = [Inhibitor 3] = 1 μM, [MUG] 1.5 mM
[11] = [Inhibitor 3] = 1 μM, [MUG] 3 mM
[12] = [Inhibitor 3] = 2 μM, [MUG] 0.375 mM
[13] = [Inhibitor 3] = 2 μM, [MUG] 0.75 mM
[14] = [Inhibitor 3] = 2 μM, [MUG] 1.5 mM
[15] = [Inhibitor 3] = 2 μM, [MUG] 3 mM
[16] = phosphate buffer (250 mM NaCl, 20 mM KH2PO4, 100 mM Na2HPO4, pH 8.0), 298 K
[17] = [Inhibitor 3] = 0.5 μM, [MUG] 0.0375 mM
[18] = [Inhibitor 3] = 0.5 μM, [MUG] 0.075 mM
[19] = [Inhibitor 3] = 0.5 μM, [MUG] 0.15 mM
[20] = [Inhibitor 3] = 0.5 μM, [MUG] 0.3 mM
[21] = [Inhibitor 3] = 1 μM, [MUG] 0.0375 mM
[22] = [Inhibitor 3] = 1 μM, [MUG] 0.075 mM
[23] = [Inhibitor 3] = 1 μM, [MUG] 0.15 mM
[24] = [Inhibitor 3] = 1 μM, [MUG] 0.3 mM
[25] = [Inhibitor 3] = 2 μM, [MUG] 0.0375 mM
[26] = [Inhibitor 3] = 2 μM, [MUG] 0.075 mM
[27] = [Inhibitor 3] = 2 μM, [MUG] 0.15 mM
[28] = [Inhibitor 3] = 2 μM, [MUG] 0.3 mM
[29] = [Inhibitor 3] = 4 μM, [MUG] 0.0375 mM
[30] = [Inhibitor 3] = 4 μM, [MUG] 0.075 mM
[31] = [Inhibitor 3] = 4 μM, [MUG] 0.15 mM
[32] = [Inhibitor 3] = 4 μM, [MUG] 0.3 mM

CCCCCC[C@@H]1NC[C@@H](O)[C@H](O)[C@H]1C(=O)O [Inhibitor 3, C6-hexyl UIFG]
1/v [1, 6]: 0.386 and 0.3868 and 0.3898
GUS activity (hydrolysis rate of MUG) [1, 6]: 0.5784 and 0.5773 and 0.5728
1/v [1, 7]: 0.2997 and 0.3073 and 0.3039
GUS activity (hydrolysis rate of MUG) [1, 7]: 0.7451 and 0.7267 and 0.7347
1/v [1, 8]: 1.333 and 1.373 and 1.236
GUS activity (hydrolysis rate of MUG) [1, 8]: 0.1676 and 0.1627 and 0.1806
1/v [1, 9]: 0.7658 and 0.7424 and 0.7331
GUS activity (hydrolysis rate of MUG) [1, 9]: 0.2916 and 0.3008 and 0.3046
1/v [1, 10]: 0.4723 and 0.4867 and 0.4608
GUS activity (hydrolysis rate of MUG) [1, 10]: 0.4727 and 0.4588 and 0.4846
1/v [1, 11]: 0.3528 and 0.337 and 0.3348
GUS activity (hydrolysis rate of MUG) [1, 11]: 0.6328 and 0.6626 and 0.667
1/v [1, 12]: 1.957 and 1.888 and 1.908
GUS activity (hydrolysis rate of MUG) [1, 12]: 0.1141 and 0.1183 and 0.117
1/v [1, 13]: 1.031 and 0.9985 and 1.0212
GUS activity (hydrolysis rate of MUG) [1, 13]: 0.2167 and 0.2236 and 0.2187
1/v [1, 14]: 0.6082 and 0.615 and 0.6155
GUS activity (hydrolysis rate of MUG) [1, 14]: 0.3672 and 0.3631 and 0.3628
1/v [1, 15]: 0.4308 and 0.4219 and 0.4288
GUS activity (hydrolysis rate of MUG) [1, 15]: 0.5183 and 0.5293 and 0.5208
ΔH ([2]; Tris buffer (250 mM NaCl, 20 mM Tris, pH 8.0), 298 K): Essentially no enthalpy change was evident; also recorded: close to zero
ΔΔH relative to 2 (ΔΔH2–3, ΔΔH2–4) ([2]; phosphate buffer): +0.04 kcal mol^−1
–TΔΔS relative to 2 (–TΔΔS2–3, –TΔΔS2–4) ([2]; phosphate buffer): –1.32 kcal mol^−1
Kd [2, 16]: 0.03 ± 0.01 µM
ΔG [2, 16]: –10.24 ± 0.18 kcal/mol
ΔH [2, 16]: –3.95 ± 0.06 kcal/mol
—TΔS [2, 16]: –6.29 ± 0.13 kcal/mol
Ki ([3]; 50 mM HEPES pH 7.5, 37 °C): 0.003 ± 0.0006 µM
Ki ([3]; source data of Table 1, from plot of apparent Km against [inhibitor] (μM)): 0.00316 µM
Ki ([4]; LgGUS, 50 mM sodium acetate pH 4.5, 37 °C): 0.86 ± 0.18 µM
1/v [4, 17]: 0.401 and 0.3673 and 0.39
GUS activity (hydrolysis rate of MUG) [4, 17]: 3104.19 and 3385.21 and 3190.6
1/v [4, 18]: 0.256 and 0.2525 and 0.2536
GUS activity (hydrolysis rate of MUG) [4, 18]: 4839.61 and 4906.13 and 4884.95
1/v [4, 19]: 0.1953 and 0.1691 and 0.1949
GUS activity (hydrolysis rate of MUG) [4, 19]: 6330.06 and 7304.48 and 6344.76
1/v [4, 20]: 0.1452 and 0.1349 and 0.1522
GUS activity (hydrolysis rate of MUG) [4, 20]: 8498.3 and 9149.25 and 8113.44
1/v [4, 21]: 0.5803 and 0.4953 and 0.5757
GUS activity (hydrolysis rate of MUG) [4, 21]: 2157.49 and 2520.77 and 2174.43
1/v [4, 22]: 0.3424 and 0.3184 and 0.351
GUS activity (hydrolysis rate of MUG) [4, 22]: 3628.61 and 3898.42 and 3540.08
1/v [4, 23]: 0.2292 and 0.221 and 0.234
GUS activity (hydrolysis rate of MUG) [4, 23]: 5401.09 and 5599.95 and 5290.95
1/v [4, 24]: 0.17 and 0.1709 and 0.1804
GUS activity (hydrolysis rate of MUG) [4, 24]: 7266.77 and 7229.36 and 6851.15
1/v [4, 25]: 0.7678 and 0.7232 and 0.846
GUS activity (hydrolysis rate of MUG) [4, 25]: 1640.4 and 1739.08 and 1492.59
1/v [4, 26]: 0.3881 and 0.4343 and 0.4681
GUS activity (hydrolysis rate of MUG) [4, 26]: 3205.84 and 2869.39 and 2664.86
1/v [4, 27]: 0.2765 and 0.2621 and 0.3029
GUS activity (hydrolysis rate of MUG) [4, 27]: 4483.64 and 4728.12 and 4096.06
1/v [4, 28]: 0.1941 and 0.1876 and 0.2109
GUS activity (hydrolysis rate of MUG) [4, 28]: 6369.22 and 6587.98 and 5864.23
1/v [4, 29]: 1.38 and 1.418 and 1.362
GUS activity (hydrolysis rate of MUG) [4, 29]: 930.888 and 906.847 and 942.511
1/v [4, 30]: 0.7054 and 0.7651 and 0.7316
GUS activity (hydrolysis rate of MUG) [4, 30]: 1782.13 and 1646.05 and 1719.56
1/v [4, 31]: 0.4164 and 0.4204 and 0.422
GUS activity (hydrolysis rate of MUG) [4, 31]: 2991.08 and 2963 and 2951.69
1/v [4, 32]: 0.2731 and 0.2793 (2×)
GUS activity (hydrolysis rate of MUG) [4, 32]: 4539.61 and 4438.44 and 4439.48
ΔH [5]: Essentially no enthalpy change was evident
